The values that follow come from US20250129078A1, “ERBB2 INHIBITORS” (Cogent Biosciences, Inc., priority 2023, published 2025).

One assay deals with EGFR WT (Homo sapiens (Human), UniProt P00533). Kind of assay: ErbB enzyme assay (CisBio HTRF-KinEASE-TK), EGFR WT. It counts as biochemical. The conditions noted are these: ATP at Km (25 μM), 1 h incubation. The method in brief:
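HTRF KinEASE-TK kinase assay, 1 h at ambient temperature with three-fold serial compound dilutions, then 1 h detection with Sa-XL665/TK-Ab-Cryptate. IC50 is the 50 POC point of a 4-parameter logistic fit.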

In another assay the target is ErbB2 V777L (Homo sapiens (Human), UniProt P04626, V777L). Put plainly: ErbB enzyme assay (CisBio HTRF-KinEASE-TK), ErbB2 V777L. Type of assay: biochemical. The method in brief: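 HTRF KinEASE-TK tyrosine-kinase read-out of substrate phosphorylation after a final 1 h at ambient temperature, from the 655/620 nm emission ratio.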
ErbB2 V777L, sequence (P04626 23-1255 V777L): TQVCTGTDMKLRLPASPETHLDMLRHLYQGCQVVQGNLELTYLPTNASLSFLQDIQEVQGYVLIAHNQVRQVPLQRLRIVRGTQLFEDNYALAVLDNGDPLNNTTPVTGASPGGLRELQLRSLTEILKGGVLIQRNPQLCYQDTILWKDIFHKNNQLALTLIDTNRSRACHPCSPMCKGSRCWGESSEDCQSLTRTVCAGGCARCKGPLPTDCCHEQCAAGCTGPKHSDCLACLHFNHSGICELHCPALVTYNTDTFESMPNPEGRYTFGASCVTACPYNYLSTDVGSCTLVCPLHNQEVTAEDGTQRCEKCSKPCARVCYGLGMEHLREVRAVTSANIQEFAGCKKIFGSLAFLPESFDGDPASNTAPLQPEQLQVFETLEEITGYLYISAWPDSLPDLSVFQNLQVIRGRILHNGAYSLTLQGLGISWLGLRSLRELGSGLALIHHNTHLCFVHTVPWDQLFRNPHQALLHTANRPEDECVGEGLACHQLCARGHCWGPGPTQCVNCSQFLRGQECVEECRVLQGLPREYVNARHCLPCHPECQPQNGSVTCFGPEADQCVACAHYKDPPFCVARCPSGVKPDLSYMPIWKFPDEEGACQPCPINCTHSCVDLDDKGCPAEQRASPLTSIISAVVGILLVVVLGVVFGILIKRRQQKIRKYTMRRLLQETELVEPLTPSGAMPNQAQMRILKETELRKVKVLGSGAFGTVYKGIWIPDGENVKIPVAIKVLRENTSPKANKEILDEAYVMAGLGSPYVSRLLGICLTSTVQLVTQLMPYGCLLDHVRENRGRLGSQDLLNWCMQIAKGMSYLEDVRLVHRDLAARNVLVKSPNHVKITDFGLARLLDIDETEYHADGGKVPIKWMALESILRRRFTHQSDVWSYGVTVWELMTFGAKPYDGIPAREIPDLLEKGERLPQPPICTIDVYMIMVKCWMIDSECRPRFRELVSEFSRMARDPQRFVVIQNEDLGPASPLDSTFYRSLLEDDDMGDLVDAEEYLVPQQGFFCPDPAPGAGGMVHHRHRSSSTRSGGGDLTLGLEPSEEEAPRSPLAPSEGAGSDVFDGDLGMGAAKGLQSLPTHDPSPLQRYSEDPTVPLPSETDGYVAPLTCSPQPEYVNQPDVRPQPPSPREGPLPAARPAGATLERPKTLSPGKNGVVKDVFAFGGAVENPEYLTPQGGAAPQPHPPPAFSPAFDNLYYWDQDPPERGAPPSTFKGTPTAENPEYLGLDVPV

EGFR WT, sequence (P00533 25-1210): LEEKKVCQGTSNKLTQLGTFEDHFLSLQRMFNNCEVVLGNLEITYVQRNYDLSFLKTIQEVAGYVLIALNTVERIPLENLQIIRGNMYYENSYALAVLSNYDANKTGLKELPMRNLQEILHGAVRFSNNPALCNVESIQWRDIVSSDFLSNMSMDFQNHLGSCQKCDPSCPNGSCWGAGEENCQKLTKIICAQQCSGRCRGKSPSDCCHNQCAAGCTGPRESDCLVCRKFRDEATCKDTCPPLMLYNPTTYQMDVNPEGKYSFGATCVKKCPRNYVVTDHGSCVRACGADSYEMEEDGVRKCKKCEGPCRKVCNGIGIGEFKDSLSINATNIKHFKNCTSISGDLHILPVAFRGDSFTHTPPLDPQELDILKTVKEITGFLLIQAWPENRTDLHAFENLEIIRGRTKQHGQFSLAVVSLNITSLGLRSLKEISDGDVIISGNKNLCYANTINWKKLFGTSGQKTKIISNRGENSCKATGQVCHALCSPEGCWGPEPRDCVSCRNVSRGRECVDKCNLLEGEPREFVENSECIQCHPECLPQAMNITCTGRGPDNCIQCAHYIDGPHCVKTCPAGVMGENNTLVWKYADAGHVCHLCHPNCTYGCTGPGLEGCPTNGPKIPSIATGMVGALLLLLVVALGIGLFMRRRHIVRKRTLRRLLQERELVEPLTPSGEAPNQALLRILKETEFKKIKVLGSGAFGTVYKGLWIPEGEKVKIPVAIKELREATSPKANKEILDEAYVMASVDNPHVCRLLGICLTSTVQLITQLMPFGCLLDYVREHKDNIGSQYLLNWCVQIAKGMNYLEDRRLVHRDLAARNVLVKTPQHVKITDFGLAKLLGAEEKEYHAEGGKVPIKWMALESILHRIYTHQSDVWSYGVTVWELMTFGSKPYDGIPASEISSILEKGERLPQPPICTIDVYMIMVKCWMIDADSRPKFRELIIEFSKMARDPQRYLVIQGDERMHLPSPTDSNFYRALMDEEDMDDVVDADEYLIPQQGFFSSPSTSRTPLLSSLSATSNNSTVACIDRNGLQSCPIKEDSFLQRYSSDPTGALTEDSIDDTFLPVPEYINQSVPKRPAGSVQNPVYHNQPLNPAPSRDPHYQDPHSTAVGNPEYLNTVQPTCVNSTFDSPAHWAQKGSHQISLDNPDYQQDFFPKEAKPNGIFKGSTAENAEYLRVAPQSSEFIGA

On to `C=CC(=O)N1C2CC1CN(c1ncc3ncnc(Nc4ccc(Oc5ccc6c(c5)nnn6C)c(C)c4)c3n1)C2` [Compound 60, 1-(3-(8-((3-methyl-4-((1-methyl-1H-benzo[d][1,2,3]triazol-5-yl)oxy)phenyl)amino)pyrimido[5,4-d]pyrimidin-2-yl)-3,6-diazabicyclo[3.1.1]heptan-6-yl)prop-2-en-1-one], for which the 50% inhibitory concentration (IC50) fell in the range of 100 to 500 nM against EGFR WT and 50 to 100 nM on ErbB2 V777L.
In the case of `C=CC(=O)N1CCN(c2ncc3ncnc(Nc4ccc(Oc5ccc6c(c5)ncn6C(F)F)c(C)c4F)c3n2)C[C@H]1C` [Compound 148, (R)-1-(4-(8-((4-((1-(difluoromethyl)-1H-benzo[d]imidazol-5-yl)oxy)-2-fluoro-3-methylphenyl)amino)pyrimido[5,4-d]pyrimidin-2-yl)-2-methylpiperazin-1-yl)prop-2-en-1-one], the IC50 against EGFR WT lay within 100 to 500 nM; at ErbB2 V777L it was 50 to 100 nM.
Regarding `C=CC(=O)N1CCN(c2ccc3ncnc(Nc4ccc(Oc5ccc6c(c5)nnn6C)c(C)c4)c3c2F)CC1` [Compound 104, 1-(4-(5-fluoro-4-((3-methyl-4-((1-methyl-1H-benzo[d][1,2,3]triazol-5-yl)oxy)phenyl)amino)quinazolin-6-yl)piperazin-1-yl)prop-2-en-1-one], the half-maximal inhibitory concentration (IC50) against EGFR WT and against ErbB2 V777L was 100 to 500 nM throughout.
On to `C=CC(=O)NC1CCN(c2ccc3ncnc(Nc4ccc(Oc5ccc6c(c5)nnn6C)c(C)c4)c3n2)CC1` [Compound 304, N-(1-(4-((3-methyl-4-((1-methyl-1H-benzo[d][1,2,3]triazol-5-yl)oxy)phenyl)amino)pyrido[3,2-d]pyrimidin-6-yl)piperidin-4-yl)acrylamide], for which the half-inhibitory concentration (IC50) against EGFR WT and against ErbB2 V777L was 100 to 500 nM in each case.
Regarding `C=CC(=O)N[C@@H]1CCCN(c2ccc3ncnc(Nc4ccc(Oc5ccc6c(c5)nnn6C)c(C)c4F)c3n2)[C@H]1C` (single isomer, unassigned) [Compound 349], the IC50 fell in the range of 100 to 500 nM against EGFR WT and 50 to 100 nM against ErbB2 V777L.
The like results for `C=CC(=O)N1C2CCCC1CC(c1ccc3ncnc(Nc4cc(C)c(Oc5ccc6c(c5)nnn6C)cc4OC)c3n1)C2` (centres unmarked) [Compound 401, 1-(3-(4-((2-methoxy-5-methyl-4-((1-methyl-1H-benzo[d][1,2,3]triazol-5-yl)oxy)phenyl)amino)pyrido[3,2-d]pyrimidin-6-yl)-9-azabicyclo[3.3.1]nonan-9-yl)prop-2-en-1-one trifluoroacetatexc] were, in that order, 100 to 500 nM and 50 to 100 nM.
For `C=CC(=O)N1CCN(c2ccc3ncnc(Nc4cc(C)c(Oc5ccc6c(c5)nnn6C)cc4F)c3n2)CC1` [Compound 94, 1-(4-(4-((2-fluoro-5-methyl-4-((1-methyl-1H-benzo[d][1,2,3]triazol-5-yl)oxy)phenyl)amino)pyrido[3,2-d]pyrimidin-6-yl)piperazin-1-yl)prop-2-en-1-one] the same measures were 100 to 500 nM and 50 to 100 nM.
The like results for `C=CC(=O)N1C2C=C(c3ccc4ncnc(Nc5ccc(Oc6ccc7c(c6)nnn7C)c(C)c5)c4n3)CC1CCC2` (centres unmarked) [Compound 405, 1-(3-(4-((3-methyl-4-((1-methyl-1H-benzo[d][1,2,3]triazol-5-yl)oxy)phenyl)amino)pyrido[3,2-d]pyrimidin-6-yl)-9-azabicyclo[3.3.1]non-2-en-9-yl)prop-2-en-1-one] were, in that order, 500 to 1000 nM and 100 to 500 nM.
For the compound `C=CC(=O)N1CCN(c2ncc3ncnc(Nc4ccc(Oc5cnc6c(c5)ncn6C(F)F)c(C)c4F)c3n2)C[C@H]1C` [Compound 177, (R)-1-(4-(8-((4-((3-(difluoromethyl)-3H-imidazo[4,5-b]pyridin-6-yl)oxy)-2-fluoro-3-methylphenyl)amino)pyrimido[5,4-d]pyrimidin-2-y1)-2-methylpiperazin-1-yl)prop-2-en-1-one], the IC50 against EGFR WT was < 50 nM; at ErbB2 V777L, 100 to 500 nM.
As for `C=CC(=O)N1CCN(c2ccc3ncnc(Nc4ccc(Oc5ccc6c(c5)nnn6C)c(C)c4)c3n2)CC[C@@H]1C` [Compound 354, (S)-1-(7-methyl-4-(4-((3-methyl-4-((1-methyl-1H-benzo[d][1,2,3]triazol-5-yl)oxy)phenyl)amino)pyrido[3,2-d]pyrimidin-6-yl)-1,4-diazepan-1-yl)prop-2-en-1-one], the values for the IC50 on EGFR WT and at ErbB2 V777L were 500 to 1000 nM and 100 to 500 nM, respectively.
Consider `C=CC(=O)N1C[C@@H]2CCN(c3ccc4ncnc(Nc5ccc(Oc6ccc7c(c6)nnn7C)c(C)c5)c4n3)[C@@H]2C1` (stereo in doubt) [Compound 314, 1-(1-(4-((3-methyl-4-((1-methyl-1H-benzo[d][1,2,3]triazol-5-yl)oxy)phenyl)amino)pyrido[3,2-d]pyrimidin-6-yl)hexahydropyrrolo[3,4-b]pyrrol-5(1H)-y1)prop-2-en-1-one], for which the IC50 against EGFR WT is 100 to 500 nM; against ErbB2 V777L, 50 to 100 nM.
As for `C=CC(=O)N1CCN(c2ncc3ncnc(Nc4cc(C)c(Oc5cc(F)c6c(c5)nnn6C)cc4OC)c3n2)C[C@H]1C` [Compound 164, (R)-1-(4-(8-((4-((7-fluoro-1-methyl-1H-benzo[d][1,2,3]triazol-5-yl)oxy)-2-methoxy-5-methylphenyl)amino)pyrimido[5,4-d]pyrimidin-2-y1)-2-methylpiperazin-1-yl)prop-2-en-1-one], the 50% inhibitory concentration (IC50) at EGFR WT and at ErbB2 V777L was 500 to 1000 nM each time.
As for `C=C(F)C(=O)N1CCN(c2ccc3ncnc(Nc4ccc(Oc5ccc6c(c5)nnn6C)c(C)c4)c3n2)CC1` [Compound 245, 2-fluoro-1-(4-(4-((3-methyl-4-((1-methyl-1H-benzo[d][1,2,3]triazol-5-yl)oxy)phenyl)amino)pyrido[3,2-d]pyrimidin-6-yl)piperazin-1-yl)prop-2-en-1-one], the results for the IC50 against EGFR WT and at ErbB2 V777L were 500 to 1000 nM and 100 to 500 nM, respectively.
As for `C=CC(=O)N1CCN(c2ncc3ncnc(Nc4ccc(Oc5ccc6c(c5)nnn6C)c(C)c4)c3n2)C[C@H]1CC` [Compound 119, (R)-1-(2-ethyl-4-(8-((3-methyl-4-((1-methyl-1H-benzo[d][1,2,3]triazol-5-yl)oxy)phenyl)amino)pyrimido[5,4-d]pyrimidin-2-y1)piperazin-1-yl)prop-2-en-1-one], the IC50 at EGFR WT lay within 500 to 1000 nM; at ErbB2 V777L it was 100 to 500 nM.
For `C=CC(=O)N[C@@H]1[C@@H]2CC[C@H]1CN(c1ncc3ncnc(Nc4ccc(Oc5ccc6c(c5)nnn6C)c(C)c4)c3n1)C2` [Compound 206, N-((1R,5S,8s)-3-(8-((3-methyl-4-((1-methyl-1H-benzo[d][1,2,3]triazol-5-yl)oxy)phenyl)amino)pyrimido[5,4-d]pyrimidin-2-yl)-3-azabicyclo[3.2.1]octan-8-yl)acrylamide], the figures for the IC50 against EGFR WT and on ErbB2 V777L were 100 to 500 nM and 50 to 100 nM, respectively.
The like results for `C=CC(=O)N1CCN(c2ncc3ncnc(Nc4ccc(Oc5ccc6c(c5)nnn6C)c(C)c4)c3n2)[C@H](C)C1` [Compound 17, (R)-1-(3-methyl-4-(8-((3-methyl-4-((1-methyl-1H-benzo[d][1,2,3]triazol-5-yl)oxy)phenyl)amino)pyrimido[5,4-d]pyrimidin-2-yl)piperazin-1-yl)prop-2-en-1-one] were, in that order, 500 to 1000 nM and 100 to 500 nM.
Regarding `C=CC(=O)N1CCN(c2ccc3ncnc(Nc4ccc(Oc5cc(F)c6c(c5)nnn6C)c(C)c4)c3n2)C[C@@H]1C1CC1` [Compound 290, (S)-1-(2-cyclopropyl-4-(4-((4-((7-fluoro-1-methyl-1H-benzo[d][1,2,3]triazol-5-yl)oxy)-3-methylphenyl)amino)pyrido[3,2-d]pyrimidin-6-yl)piperazin-1-yl)prop-2-en-1-one], the figures for the IC50 at EGFR WT and against ErbB2 V777L were 500 to 1000 nM and 100 to 500 nM, respectively.
Regarding `C=CC(=O)N1CCN(c2ncc3ncnc(Nc4ccc(Oc5ccn6nc(C)nc6c5)c(C)c4)c3n2)C[C@H]1C` [Compound 139], the 50% inhibitory concentration (IC50) at EGFR WT and on ErbB2 V777L was 100 to 500 nM throughout.
Turning to `C=CC(=O)N1CCN(c2ccc3ncnc(Nc4ccc(Oc5ccc6c(c5)ncn6C(F)F)c(C)c4F)c3n2)C[C@H]1C` [Compound 253, (R)-1-(4-(4-((4-((1-(difluoromethyl)-1H-benzo[d]imidazol-5-yl)oxy)-2-fluoro-3-methylphenyl)amino)pyrido[3,2-d]pyrimidin-6-yl)-2-methylpiperazin-1-yl)prop-2-en-1-one], the half-maximal inhibitory concentration (IC50) on EGFR WT was 100 to 500 nM; against ErbB2 V777L, 50 to 100 nM.
For `C=CC(=O)N1CCN(c2ncc3ncnc(Nc4ccc(Oc5ccc6c(c5)nnn6C)c(C)c4)c3n2)C[C@@H]1C1CC1` [Compound 117, (S)-1-(2-cyclopropyl-4-(8-((3-methyl-4-((1-methyl-1H-benzo[d][1,2,3]triazol-5-yl)oxy)phenyl)amino)pyrimido[5,4-d]pyrimidin-2-yl)piperazin-1-yl)prop-2-en-1-one], the values for the half-maximal inhibitory concentration (IC50) at EGFR WT and against ErbB2 V777L were ≥ 1000 nM and 100 to 500 nM, respectively.
Consider `C=CC(=O)N1CCCN(c2ncc3ncnc(Nc4ccc(Oc5ccc6c(c5)ncn6C)c(C)c4)c3n2)C[C@H]1C` [Compound 143, (R)-1-(2-methyl-4-(8-((3-methyl-4-((1-methyl-1H-benzo[d]imidazol-5-yl)oxy)phenyl)amino)pyrimido[5,4-d]pyrimidin-2-yl)-1,4-diazepan-1-yl)prop-2-en-1-one], for which the IC50 is ≥ 1000 nM at EGFR WT and 100 to 500 nM on ErbB2 V777L.
For the compound `C=CC(=O)N1CC[C@H]2CN(c3ncc4ncnc(Nc5ccc(Oc6ccc7c(c6)nnn7C)c(C)c5)c4n3)C[C@H]21` [Compound 149, 1-((3aS,6aS)-5-(8-((3-methyl-4-((1-methyl-1H-benzo[d][1,2,3]triazol-5-yl)oxy)phenyl)amino)pyrimido [5,4-d]pyrimidin-2-yl)hexahydropyrrolo[3,4-b]pyrrol-1(2H)-y1)prop-2-en-1-one], the half-inhibitory concentration (IC50) on EGFR WT was in the range of 500 to 1000 nM; against ErbB2 V777L it was 100 to 500 nM.
